Patent US20040006070A1, “Intraspinal continuous infusion of midazolam hydrochloride for the treatment of pain” (priority 2002, published 2004)
Several values for one entry are separate records, joined by “and”; a condition that tells them apart may be missing. Equal values may be shown once. Entries after “also recorded” stand apart in the source; their conditions may differ. Where a name gives a salt, the structure may show the parent alone.

Legend:
Acute Pain Sheep Model = assay: Mechanical stimulus device nociceptive testing (% MPE), acute pain sheep model; type: in vivo
Description: Open-label (known dose) trial: A trial with known midazolam doses was performed in the first 7 sheep. Animals were administered 3 mg/day (N=1), 5 mg/day (N=1), 10 mg/day (N=1), and 15 mg/day (N=4) for 43 days. These doses were chosen based upon previous intrathecal bolus dose studies in rats and humans, with conversion of from species to species based on cerebral spinal fluid (CSF) production rate and total CSF volume. Analgesic activity was assessed using a mechanical stimulus device which produces a stimulus of acute pain by application of force via a blunt needle applied to the shaved front foreleg of the animal. Force is applied with increasing pressure until the animal lifts its leg in response to the painful stimulus. To evaluate the analgesic effect of midazolam, response latencies were expressed as a percentage of the maximum possible effect, % MPE. The response latency is defined as follows: [formula]
A mechanical stimulus device was used for the pain stimulus. […] The force applied to the pin was measured by strain gauges that are incorporated into the device on the leg. The output from the strain gauges was recorded on a millivoltmeter in the control box. […] To compare the effects of midazolam, the data were accumulated over the testing period, and all response latencies were expressed as percentage of the maximum possible effect (MPE) where: [formula] […]

[1] = Gait monitoring, four-grade scale of behavioral and motor changes; type: in vivo, sheep; design: key: Grade 0: animal standing, sheep is able to rise and ambulate without any difficulty; Grade 1: Shuffling of either rear leg or slight limp; slight distortion of normal spinal axis; Grade 2: Loss of righting reflex in one of the rear legs, sheep able to stand without assistance, but with some difficulty; Grade 3: Inability to maintain standing posture; attempts to help animal stand are unsuccessful; conditions: day (1-43)
Excerpt: Daily rectal temperatures were taken and any behavioral/motor changes were noted. Gait monitoring will be conducted as described below based on a four-grade scale for the evaluation of behavioral and motor changes. Grade 0: animal standing, sheep is able to rise and ambulate without any difficulty. Grade 1: Shuffling of either rear leg or slight limp; slight distortion of normal spinal axis. Grade 2: Loss of righting reflex in one of the rear legs, sheep able to stand without assistance, but with some difficulty. Grade 3: Inability to maintain standing posture; attempts to help animal stand are unsuccessful.

[2] = CSF fluid analysis and routine cultures; type: in vivo, sheep; conditions: for CSF RBC Count Post Mortum / CSF WBC Count Post Mortum / CSF Glucose Post Mortum / CSF Total Protein Post Mortum: day 43
Description: On day 43 after venous blood samples were taken, animals were euthanized (Beuthanasia 1 ml/4.5 kg IV bolus injection). CSF samples were obtained for analysis (1-2 ml drawn from L-7/S-1 after a laminectomy was performed to expose the dura) of glucose, total protein, and cell differential.

[3] = Toxicity in neuropathic pain sheep: clinical signs, necropsy, histopathology; type: in vivo
Excerpt: Animals will be observed daily for any signs of clinical toxicity such as limping and loss of appetite. At necropsy the spinal cord will be examined for any gross changes. Histopathologic evaluation will be performed on all animals after drug studies are complete. These examinations will detect any neurotoxicity that may be present due to the spinal infusion of midazolam.

[4] = rabbit, intrathecal bolus 0.1% midazolam or preservative-free midazolam in 0.3 ml, one or five days; cited from earlier work
[5] = CSF, double blinded study, individual sheep, dose group not given, hydrochloride
[6] = open label sheep Red #473, 3 mg/day
[7] = open label sheep Sandy #518, 5 mg/day
[8] = open label sheep Toad #498, 10 mg/day

SMILES: Cc1ncc2n1-c1ccc(Cl)cc1C(c1ccccc1F)=NC2 [Midazolam, midazolam hydrochloride]
- pain relief (Acute Pain Sheep Model; closed-label study, 5 or 15 mg/day intrathecal): significant pain relief
- pain relief (Acute Pain Sheep Model; open-label trial, all treated animals, 5-15 mg/day intrathecal for 43 days): significant pain relief
- Gait Normal 0 ([1]; double blinded sheep Chicken Hawk #87, 5 mg/day intrathecal infusion): 0
- Gait Normal 0 ([1]; double blinded sheep Elmer Fudd #437, 5 mg/day intrathecal infusion): 0
- Gait Normal 0 ([1]; double blinded sheep Leghorn II #815, 15 mg/day intrathecal infusion): 0
- Gait Normal 0 ([1]; double blinded sheep Petunia #439, 15 mg/day intrathecal infusion): 0
- Gait Normal 0 ([1]; double blinded sheep Porky #402, 5 mg/day intrathecal infusion): 0
- Gait Normal 0 ([1]; double blinded sheep Roadrunner #84, 15 mg/day intrathecal infusion): 0
- Gait Normal 0 ([1]; open label sheep #457 Tazz, 15 mg/day intrathecal infusion): 0
- Gait Normal 0 ([1]; open label sheep #498 Toad, 10 mg/day intrathecal infusion): 0
- Gait Normal 0 ([1]; open label sheep #518 Sandy, 5 mg/day intrathecal infusion): 0
- Gait Normal 0 ([1]; open label sheep Dot #85, 15 mg/day intrathecal infusion): 0
- Gait Normal 0 ([1]; open label sheep Wacko #83, 15 mg/day intrathecal infusion): 0
- Gait Normal 0 ([1]; open label sheep Yacko #91, 15 mg/day intrathecal infusion): 0
- Gross Exam Post Mortum ([2]; CSF, double blinded study, individual sheep, dose group (5 or 15 mg/day or saline) not given, hydrochloride): cloudy; also recorded: Colorless; also recorded: clear; also recorded: Pale pink; also recorded: Cloudy**
- Glucose Post Mortum [2, 5]: 35 mg/dL and 25 mg/dL and 31 mg/dL and 38 mg/dL and 24 mg/dL and 47 mg/dL and 34 mg/dL
- RBC Count Post Mortum [2, 5]: 480 µL⁻¹ and 725 µL⁻¹ and 4250 µL⁻¹ and 63 µL⁻¹ and 2 µL⁻¹ and 4 µL⁻¹ and 1325 µL⁻¹
- Total Protein Post Mortum [2, 5]: 73 mg/dL and 40 mg/dL and 47 mg/dL and 35 mg/dL and 59 mg/dL and 39 mg/dL and 42 mg/dL
- WBC Count Post Mortum [2, 5]: 12 µL⁻¹ and 80 µL⁻¹ and 22 µL⁻¹ and 8 µL⁻¹ and 1 µL⁻¹ and 4 µL⁻¹ and 29 µL⁻¹
- Routine Cultures Post Mortum ([2]; CSF, individual sheep, cell wraps 'No' / 'Growth', dose group not given): No
- CSF RBC Count Post Mortum [2, 6]: 772 µL⁻¹
- CSF WBC Count Post Mortum [2, 6]: 4 µL⁻¹
- CSF Glucose Post Mortum [2, 7]: 36 mg/dL
- CSF RBC Count Post Mortum [2, 7]: 56 µL⁻¹
- CSF Total Protein Post Mortum [2, 7]: 46.1 mg/dL
- CSF WBC Count Post Mortum [2, 7]: 206 µL⁻¹
- CSF Glucose Post Mortum [2, 8]: 40 mg/dL
- CSF RBC Count Post Mortum [2, 8]: 2160 µL⁻¹
- CSF Total Protein Post Mortum [2, 8]: 39.6 mg/dL
- CSF WBC Count Post Mortum [2, 8]: 36 µL⁻¹
- tolerability ([3]; intrathecal up to 5 mg/day): tolerated well
- necropsy, spinal cord lesions ([3]; sheep #980 Dudley): did not exhibit any spinal cord lesions
- neurotoxicity [4]: neurotoxicity
